Consider one compound from patent publication US10206401B2, “Pyridine compounds for controlling invertebrate pests II” (BASF SE, priority 2010, dated 2019).

What all share (assay type): in vivo
Assay [1] concerns Cotton Aphid (Aphis gossypii, Mixed Life Stages). Put plainly: Cotton aphid, method a (cotyledon dip). Conditions: 120 h, cotton cotyledons dipped, after 5 days, read-out: mortality in comparison with untreated controls. The text has this:
II.1 Cotton Aphid (Aphis gossypii, Mixed Life Stages)
The active compounds were formulated in 50:50 (vol/vol) acetone:water and 100 ppm Kinetica™ surfactant.
Cotton plants at the cotyledon stage (one plant per pot) were infested by placing a heavily infested leaf from the main colony on top of each cotyledon. The aphids were allowed to transfer to the host plant overnight, and the leaf used to transfer the aphids was removed. The cotyledons were dipped in the test solution and allowed to dry. After 5 days, mortality counts were made.

The subject of assay [2] is Cowpea Aphid (Aphis craccivora). Description: Cowpea aphid, potted cowpea plants sprayed. Conditions: population reduction assessed after 24, 72 and 120 hours, read-out: mortality in comparison with untreated controls. As for the experimental part: II.3 Cowpea Aphid (Aphis craccivora)
The active compounds were formulated in 50:50 (vol/vol) acetone:water. The test solution was prepared at the day of use.
Potted cowpea plants colonized with 100-150 aphids of various stages were sprayed after the pest population had been recorded. Population reduction was assesed after 24, 72, and 120 hours.

For assay [3], the system named is Vetch Aphid (Megoura viciae). Description: Vetch aphid, bean leaf disks in microtiterplates. The conditions noted are these: foliar, 144 h, test solution 2500 mg/L, bean leaf disks sprayed, 6 days. As for the experimental part:
II.4 Vetch Aphid (Megoura viciae)
The active compounds were formulated in 1:3 (vol/vol) DMSO:water with different concentrations of formulated compounds.
Bean leaf disks were placed into microtiterplates filled with 0.8% agar-agar and 2.5 ppm OPUS™. The leaf disks were sprayed with 2.5 μl of the test solution and 5 to 8 adult aphids were placed into the microtiterplates which were then closed and kept at 23±1° C. and 50±5% relative humidity under fluorescent light for 6 days. Mortality was assessed on the basis of vital, reproduced aphids. Aphid mortality and fecundity was then visually assessed.

The mortality is the percentage killed. As to `Cc1c(C(=O)Nc2cccnc2)nnn1Cc1ccccc1` [Example 2, 1-Benzyl-5-methyl-1H-[1,2,3]triazole-4-carboxylic acid pyridin-3-ylamide], the mortality at 300 ppm in assay [1] is at least 75%; in assay [2] it was at least 90%. The same compound registered a mortality at 2500 µg/mL in assay [3] of at least 90%.
